{"source": "patent US9029414B2", "about": "“Triterpenoid compounds and methods of use thereof” (Biotechnology Research Corporation, priority 2008, dated 2015)", "key": {"[1]": {"system": "cortical neurons", "assay": "Cortical neuron survival assay against amyloid beta peptide excitotoxicity (MTT)", "assay_type": "cell-based, Sprague-Dawley rats", "design": "key: black bars represent compounds with strong protective effect; striped bars represent compounds with moderate effect; light-dotted bars represent compounds without or with effect less than 25%", "conditions": "compounds 2 hours prior to co-treatment with Aβ25-35 (10 μM) 24 hours", "description": "FIG. 14. Derivatives of DA001 protect the cortical neurons from Aβ25-35 excitotoxicity. Cortical neurons were incubated with compounds (at various [μM]) derived from of DA001 2 hours prior to co-treatment with Aβ25-35 (10 μM) for 24 hours. 3-(4,5-Dimethylthiazol-2-yl)-2,5-diphenyltetrazolium bromide (MTT) assay was performed 24 hours after Aβ25-35 treatment. Data are expressed as mean fold change±s.e.m. compared to solvent control (DMSO). Dark-dotted bar represents data without addition of Aβ25-35, open bar represents solvent control, black bars represent compounds with strong protective effect while striped bars represent compounds with moderate effect, light-dotted bars represent compounds without or with effect less than 25%. *=P<0.05, **=P<0.005.\nCortical neurons were prepared from embryonic day 18 Sprague-Dawley rats. After the cortices had been removed from the brain, isolated cells were plated onto Poly d-Lysine (PDL) (P0899, Sigma)-coated 48 well plates (150687, NUNC) at a density of 1×10^5 cell per well using Neurobasal Medium (NB) (21103-049, Gibco) with B27 supplement (17504-044, Gibco), penicillin/streptomycin (15140, Gibco) and 1 mM L-glutamine (25030, Gibco). The cell culture was incubated at 37° C. in a humidified atmosphere of 5% CO2 in air. Medium was changed to growth medium (Neurobasal Medium with penicillin/streptomycin and B27 supplement) after 3 hours. Half medium was changed with growth medium every 2-3 days to maintain the cells until day 7 in vitro (7 DIV). Serial dilutions of samples were prepared in growth medium and DMSO was used as vehicle control. For pre-treating part, half of the medium was removed from wells, and equal amount of diluted samples were replaced. Cells were then incubated for 2 hours at 37° C. in a humidified atmosphere of 5% CO2 in air. Cortical neurons were then incubated with DA001 derived compounds (at various concentrations in [μM]) together with Aβ25-35 (10 μM, Sigma) for 24 hours. Quantification of living cells are measured by MTT (3-(4,5-Dimethylthiazol-2-yl)-2,5-diphenyltetrazolium bromide, USB) assay performed 24 hours after Aβ25-35 treatment. Yellow MTT is reduced to purple formazan in the mitochondria of living cells. A solubilization solution [10% SDS (sodium dodecyl sulfate)/0.01 M hydrochloric acid] is added to dissolve the insoluble purple formazan product into a colored solution which was then quantified at wavelength 570 nm using a spectrophotometer (DYNEX Technologies).\nA total of 90 derivatives of DA001 were synthesized, and their effect on cortical neurons survival against amyloid beta peptide (Aβ25-35) excitotoxicity was examined. […] Compounds with strong protective effect are DA002, DA005, DA007, DA016, DA018, DA019, DA042, DA044, DA060 and DA072."}, "[2]": {"system": "C57BL/6 mice immunized with MOG", "assay": "Experimental autoimmune encephalomyelitis (EAE) behavioral scores", "assay_type": "in vivo", "conditions": "100 mg/kg oral daily from day of immunization", "description": "FIG. 15 illustrates that DA001 improves the behavioral scores of mice with experimental autoimmune encephalomyelitis. C57BL/6 mice were immunized subcutaneously at both sides of their hind limbs with myelin oligodendrocyte glycoprotein (MOG)/Complete Freund's Adjuvant (CFA) kit (Hooke Laboratories) and performed as indicated in the manufacturer's instruction. Albumin/CFA kit (Hooke Laboratories) were used as an immunization control. Oral administration of DA001 at 100 mg/kg was given daily starting from the day of immunization. The vehicle (water) was given to mice injected with MOG or albumin daily via oral administration. Animals were weighed and monitored daily and behavioral impairment was quantified based on the clinical scale. The graph presented here is a composite of four separate EAE trials. **=p≦0.01.\nFIG. 16 illustrates that DA002 improves the behavioral scores of mice with experimental autoimmune encephalomyelitis. C57BL/6 mice were immunized subcutaneously at both sides of their hind limbs with myelin oligodendrocyte glycoprotein (MOG)/Complete Freund's Adjuvant (CFA) kit (Hooke Laboratories) and performed as indicated in the manufacturer's instruction. […] Animals were weighed and monitored daily and behavioral impairment was quantified based on the clinical scale. *=p≦0.05.\nC57BL/6 mice were immunized subcutaneously at both sides of their hind limbs with myelin oligodendrocyte glycoprotein (MOG)/Complete Freund's Adjuvant (CFA) kit (Hooke Laboratories) and performed as in manufacturer's instruction. […] Animals were weighed and monitored daily and behavioral impairment was quantified based on the clinical scale. […]\nOn day 0, six-week old male C57BL/6 mice (Hong Kong University of Science and Technology, Animal Care facility) were immunized with 100 μg of myelin oligodendrocyte glycoprotein peptide (MOG35-55)/complete Freund's Adjuvant (CFA) emulsion kit (Hooke Laboratories) was injected subcutaneously at both sides of the tail base. […] The animals were also weighed and the neurological impairment was quantified daily based on the previously published criteria. […]"}, "[3]": {"system": "BALB/c mice", "assay": "Murine model of oxazolone-induced ear edema", "assay_type": "in vivo", "conditions": "topical, positive control", "description": "This is a contract research performed by Washington Biotechnology Inc., Columbia, Md., protocol 1041. On day 0, 42 BALB/c mice (female, Harlan Sprague-Dawley, 5-6 weeks) were shaved on the ventral surface of the right ear. 100 μl of the 5% oxazolone solution (Sigma) was then applied to the saved ear. The treated mice were then returned to the cage and kept for additional 6 days. On day 7, the mice were weighed and dosed orally with 10 ml/kg water or DA021 at either 30 mg/kg or 100 mg/kg or topically applied on both sides of both ears with 25 μl betamethasone. Thirty minutes after oral dosing, 5 μl of 3% oxazolone was applied to both sides of the right ear and 5 μl of acetone was applied to both sides of the contralateral ear. Twenty-four hours after 3% oxazolone/acetone application, the mice were euthanized, the ears removed and weighed.\nTo evaluate the efficacy and potency of DA021 in acute inflammation, an oxazolone-induced ear edema model was carried out in mice. Oxazolone-induced ear edema model is a commonly used skin inflammatory animal model. Oxazolone (OA) is an allergen that induces immunological responses that lead to surface edema. […] Betamethasone (BMS) which was used as a positive control, is a corticosteroid that is used as an anti-itching cream and other anti-inflammatory remedies.\nMice were then treated with betamethasone (BMS, mg, topical) or DA021 (mg/kg, p.o.) and the ears were removed and weighed. N=10 per group, significance (p-value) was calculated versus OA+vehicle using the Student's T-test, *=P≦1×10^−7, #=P≦1×10^−12."}, "[4]": {"system": "LPS-induced TNF-α in serum", "assay": "Murine model of lipopolysaccharide-induced cytokine production", "assay_type": "in vivo, Swiss-Webster mice", "conditions": "10 mg/kg orally, positive control", "description": "This is a contract research performed by Washington Biotechnology Inc., Columbia, Md., protocol 1077. Swiss-Webster mice (female, Harlan Sprague-Dawley, 5-6 weeks) were weighed and dosed orally with 10 ml/kg water, prednisolone at 10 mg/kg, or DA021 at 30 mg/kg or 100 mg/kg. Thirty minutes after oral dosing, lipopolysaccharides (LPS) at 2 mL/kg was injected. Two hours after LPS injection, the mice were anesthetized and exsanguinated into serum separator micro-container tubes. The blood was processed to serum. The serum samples were assayed for tumor necrosis factor-α (TNFα) concentration by ELISA (Pierce) according to the manufacturer's protocol.\nEvaluation of the efficacy and potency of orally administered DA021 to inhibit the lipopolysaccharide (LPS)-induced release of tumor necrosis factor-α (TNF-α) in mice was carried out. LPS is a widely used endotoxin, isolated from the bacteria, E. coli in inducing acute inflammation in an organism. Prednisolone is a synthetic corticosteroid drug that is commonly used in inflammatory reactions. It is a broad range immunosuppressant. Based on FIG. 29, there was a marked increase in the amount of TNF-α in serum upon LPS treatment in mice.\nTwo hours after LPS injection, the serum was collected from the mice. The serum samples were assayed for tumor necrosis factor-α (TNFα) concentration by ELISA (Pierce) according to the manufacturer's protocol. N=10, significance was calculated versus LPS+vehicle using the Student's T-test, *=p≦0.05, #=p≦1×10^−4."}}, "data": [{"compound": "C=C(C)[C@@H]1CC[C@]2(C(=O)O)CC[C@]3(C)C(CCC4[C@@]5(C)CCC(=O)[C@@](C)(COC(C)=O)[C@@H]5CC[C@]43C)C12", "note": "(stereo partly shown) [DA016]", "values": [{"measurement": "protective effect against Aβ25-35 excitotoxicity", "setting": "[1]", "result": "strong"}]}, {"compound": "C=C(C)[C@@H]1CC[C@]2(C(=O)O)CC[C@]3(C)C(CCC4[C@@]5(C)CC[C@H](O)[C@@](C)(CO)[C@@H]5CC[C@]43C)C12", "note": "(stereo partly shown) [DA002]", "values": [{"measurement": "protective effect against Aβ25-35 excitotoxicity", "setting": "[1]", "result": "strong"}, {"measurement": "EAE scores vs vehicle-treated EAE mice", "setting": "[2]", "result": "significant decrease in the EAE scores"}]}, {"compound": "C=C(C)[C@@H]1CC[C@]2(C(=O)O)CC[C@]3(C)C(CCC4[C@@]5(C)CC/C(=N\\O)[C@@](C)(CO)[C@@H]5CC[C@]43C)C12", "note": "(stereo partly shown) [DA019]", "values": [{"measurement": "protective effect against Aβ25-35 excitotoxicity", "setting": "[1]", "result": "strong"}]}, {"compound": "C=C(COC(C)=O)[C@@H]1CC[C@]2(C(=O)O)CC[C@]3(C)C(CC[C@@H]4[C@@]5(C)CC[C@H](OC(C)=O)[C@@](C)(COC(C)=O)[C@@H]5CC[C@]43C)[C@@H]12", "note": "(stereo partly shown) [DA060, 3,23,30-Triacetoxy-betulinic acid]", "values": [{"measurement": "protective effect against Aβ25-35 excitotoxicity", "setting": "[1]", "result": "strong"}]}, {"compound": "C=C(C)[C@@H]1CC[C@]2(C(=O)O)CC[C@]3(C)C(CCC4[C@@]5(C)CC[C@H](O[C@@H]6OC[C@H](OC(C)=O)[C@H](OC(C)=O)[C@H]6O[C@@H]6O[C@@H](C)[C@H](OC(C)=O)[C@@H](OC(C)=O)[C@H]6OC(C)=O)[C@@](C)(COC(C)=O)[C@@H]5CC[C@]43C)C12", "note": "(stereo partly shown) [DA044]", "values": [{"measurement": "protective effect against Aβ25-35 excitotoxicity", "setting": "[1]", "result": "strong"}]}, {"compound": "C[C@H]1C[C@H]2[C@@H]3CCC4=CC(=O)C=C[C@]4(C)[C@@]3(F)[C@@H](O)C[C@]2(C)[C@@]1(O)C(=O)CO", "note": "[Betamethasone, reference compound]", "values": [{"measurement": "Change in Ear Weight (mg), Average", "setting": "[3]", "result": 17.4, "unit": "mg"}, {"measurement": "Change in Ear Weight, % Inhibition", "setting": "[3]", "result": 75.4, "unit": "%"}]}, {"compound": "C=C(C)[C@@H]1CC[C@]2(C(=O)O)CC[C@]3(C)C(CCC4[C@@]5(C)CC[C@H](OC(C)=O)[C@@](C)(CO)[C@@H]5CC[C@]43C)C12", "note": "(stereo partly shown) [DA007]", "values": [{"measurement": "protective effect against Aβ25-35 excitotoxicity", "setting": "[1]", "result": "strong"}]}, {"compound": "C[C@]12C=CC(=O)C=C1CC[C@@H]1[C@@H]2[C@@H](O)C[C@@]2(C)[C@H]1CC[C@]2(O)C(=O)CO", "note": "[Prednisolone, reference compound]", "values": [{"measurement": "LPS-induced TNF-α level", "setting": "[4]", "result": "dramatically decreased"}]}, {"compound": "C=C(C)[C@@H]1CC[C@]2(C(=O)O)CC[C@]3(C)C(CCC4[C@@]5(C)CCC(=O)[C@@](C)(CO)[C@@H]5CC[C@]43C)C12", "note": "(stereo partly shown) [DA018]", "values": [{"measurement": "protective effect against Aβ25-35 excitotoxicity", "setting": "[1]", "result": "strong"}]}, {"compound": "C=C(C)[C@@H]1CC[C@]2(C(=O)NCc3ccccc3)CC[C@]3(C)C(CCC4[C@@]5(C)CC[C@H](O)[C@@](C)(CO)[C@@H]5CC[C@]43C)C12", "note": "(stereo partly shown) [DA042]", "values": [{"measurement": "protective effect against Aβ25-35 excitotoxicity", "setting": "[1]", "result": "strong"}]}, {"compound": "C=C(CNCc1ccccc1)[C@@H]1CC[C@]2(C(=O)O)CC[C@]3(C)C(CC[C@@H]4[C@@]5(C)CC[C@H](OC(C)=O)[C@@](C)(COC(C)=O)[C@@H]5CC[C@]43C)[C@@H]12", "note": "(stereo partly shown) [DA072, 30-N-Benzylamino-3,23-diacetoxy-betulinic acid]", "values": [{"measurement": "protective effect against Aβ25-35 excitotoxicity", "setting": "[1]", "result": "strong"}]}]}
